Measurements from patent publication US20190367516A1 (Bayer Pharma Aktiengesellschaft, priority 2015, published 2019).
Read-outs that look alike come from different tables or passages of the source.

Experiments:
human M2 receptor [1] = target: T1, human M2 receptor (Homo sapiens, UniProt P08172); assay type: cell-based; details: α >1 = positive cooperativity
T1 sequence (P08172 1-466): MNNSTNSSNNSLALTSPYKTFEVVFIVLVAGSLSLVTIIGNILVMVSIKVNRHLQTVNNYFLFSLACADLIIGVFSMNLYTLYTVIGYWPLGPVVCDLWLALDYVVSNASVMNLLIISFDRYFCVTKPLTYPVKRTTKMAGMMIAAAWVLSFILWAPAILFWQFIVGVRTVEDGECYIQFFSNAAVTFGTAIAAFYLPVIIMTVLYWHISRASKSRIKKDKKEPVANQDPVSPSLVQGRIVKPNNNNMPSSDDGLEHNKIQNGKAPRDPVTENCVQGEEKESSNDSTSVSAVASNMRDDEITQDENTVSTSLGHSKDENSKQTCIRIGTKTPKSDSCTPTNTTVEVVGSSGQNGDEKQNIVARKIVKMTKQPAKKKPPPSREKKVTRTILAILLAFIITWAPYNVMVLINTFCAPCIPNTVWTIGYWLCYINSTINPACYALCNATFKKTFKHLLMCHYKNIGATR

human M2 receptor [2] = target: T1, human M2 receptor; details: for Emax: read-out: Efficiency, boosting of the acetylcholine effect at EC20 acetylcholine concentration; for Efficiency: boosting of the acetylcholine effect at EC20 acetylcholine concentration
[3] = shift of acetylcholine dose-response curve (Allosteric EC50 shift)
[4] = Receptor activity EC50, allosteric potency at EC20 acetylcholine, M2-GIRK1/4 reporter cells, in some cases mean of two or more determinations
[5] = shift in the acetylcholine dose-response curve (Allosteric EC50 shift, GraphPad PRISM)
[6] = Receptor activity EC50, M2-GIRK1/4 activation test, acetylcholine at EC20, allosteric potency, in some cases mean values from two or more determinations

| Cooperativity (alpha factor) (human M2 receptor [1]; [3]) | EC50 (human M2 receptor [2]; [4]) | Emax (human M2 receptor [2]; M2-GIRK1/4 reporter cells) | Efficiency (human M2 receptor [2]; M2-GIRK1/4 reporter cells) | Cooperativity (alpha factor) (human M2 receptor [1]; [5]) | EC50 (human M2 receptor [2]; [6]) | SMILES |
| --- | --- | --- | --- | --- | --- | --- |
| 36 | 9 nM | 87% | – | – | – | CCC(COC(F)(F)F)NC(=O)c1cn(-c2c(F)cc(F)cc2F)c2nc(N3C[C@@H](O)CC3=O)ccc2c1=O (mixture of isomers) [Example 410, 7-[(4S)-4-Hydroxy-2-oxopyrrolidin-1-yl]-4-oxo-N-[1-(trifluoromethoxy)butan-2-yl]-1-(2,4,6-trifluorophenyl)-1,4-dihydro-1,8-naphthyridine-3-carboxamide] |
| 7 | 17 nM | 89% | – | – | – | CC1CCN(c2ccc3c(=O)c(C(=O)N[C@@H](C)C(F)(F)F)cn(-c4c(F)cc(F)cc4Cl)c3n2)C1=O (mixture of isomers) [Example 418, 1-(2-Chloro-4,6-difluorophenyl)-7-[3-methyl-2-oxopyrrolidin-1-yl]-4-oxo-N-[(2S)-1,1,1-trifluoropropan-2-yl]-1,4-dihydro-1,8-naphthyridine-3-carboxamide] |
| 16 | 6 nM | 79% | – | – | – | CC[C@H](NC(=O)c1cn(-c2c(F)cc(F)cc2Cl)c2nc(N3CCC(C)C3=O)ccc2c1=O)C(F)(F)F (mixture of isomers) [Example 422, 1-(2-Chloro-4,6-difluorophenyl)-7-[3-methyl-2-oxopyrrolidin-1-yl]-4-oxo-N-[(2S)-1,1,1-trifluorobutan-2-yl]-1,4-dihydro-1,8-naphthyridine-3-carboxamide] |
| 21 | 50 nM | 85% | – | – | – | CCC1CCN(c2ccc3c(=O)c(C(=O)N[C@@H](C4CC4)C(F)(F)F)cn(-c4c(F)cc(F)cc4F)c3n2)C(=O)N1 (mixture of isomers) [Example 446, N-[(1 S)-1-Cyclopropyl-2,2,2-trifluoroethyl]-7-[4-ethyl-2-oxotetrahydropyrimidin-1(2H)-yl]-4-oxo-1-(2,4,6-trifluorophenyl)-1,4-dihydro-1,8-naphthyridine-3-carboxamide] |
| 44 | 6 nM | 99.5% | – | – | – | CCC(NC(=O)c1cn(-c2c(F)cc(F)cc2F)c2nc(N3C[C@@H](O)CC3=O)ccc2c1=O)C(C)C (mixture of isomers) [Example 484, 7-[(4S)-4-Hydroxy-2-oxopyrrolidin-1-yl]-N-[2-methylpentan-3-yl]-4-oxo-1-(2,4,6-trifluorophenyl)-1,4-dihydro-1,8-naphthyridine-3-carboxamide] |
| 31 | 10 nM | – | 92.0% | – | – | CC(C)C(NC(=O)c1cn(-c2c(F)cc(F)cc2F)c2nc(N3CCNC3=O)ccc2c1=O)C(F)(F)F (racemic) [Example 537, 4-Oxo-7-(2-oxoimidazolidin-1-yl)-N-[1,1,1-trifluoro-3-methylbutan-2-yl]-1-(2,4,6-trifluorophenyl)-1,4-dihydro-1,8-naphthyridine-3-carboxamide] |
| 40 | 7 nM | – | 100.0% | – | – | CC(C)C(NC(=O)c1cn(-c2c(F)cc(F)cc2F)c2nc(N3CCNC3=O)ccc2c1=O)C(F)(F)F (racemic) [Example 538, 4-Oxo-7-(2-oxoimidazolidin-1-yl)-N-[1,1,1-trifluoro-3-methylbutan-2-yl]-1-(2,4,6-trifluorophenyl)-1,4-dihydro-1,8-naphthyridine-3-carboxamide] |
| 36 | 19 nM | – | 98.5% | – | – | CC(NC(=O)c1cn(-c2c(F)cc(F)cc2F)c2nc(N3CCNC3=O)ccc2c1=O)C(F)(F)C(F)(F)F (racemic) [Example 542, 4-Oxo-7-(2-oxoimidazolidin-1-yl)-N-[3,3,4,4,4-pentafluorobutan-2-yl]-1-(2,4,6-trifluorophenyl)-1,4-dihydro-1,8-naphthyridine-3-carboxamide] |
| 33 | – | – | 94.0% | – | – | CC(C)(CC(F)(F)F)NC(=O)c1cn(-c2c(F)cc(F)cc2F)c2nc(N3CC(O)C4(CC4)C3)ccc2c1=O (racemic) [Example 571, 7-[7-Hydroxy-5-azaspiro[2.4]hept-5-yl]-4-oxo-N-(4,4,4-trifluoro-2-methylbutan-2-yl)-1-(2,4,6-trifluorophenyl)-1,4-dihydro-1,8-naphthyridine-3-carboxamide] |
| – | – | – | – | 13 | 113 nM | CC[C@@H](NC(=O)c1cn(-c2ccc(F)cc2F)c2nc(N3CCC(C)(OC)C3=O)ccc2c1=O)C(F)(F)F (single isomer, unassigned) [Example 198] |
| – | – | – | – | 15 | 263 nM | CC[C@@H](NC(=O)c1cn(-c2ccc(F)cc2F)c2nc(N3CCC(C)(OC)C3=O)ccc2c1=O)C(F)(F)F (single isomer, unassigned) [Example 199] |
| – | – | – | – | 18 | 35 nM | O=C(N[C@H](c1ccccc1Cl)C(F)(F)F)c1cn(-c2ccc(F)cc2F)c2nc(N3CCCC(O)C3=O)ccc2c1=O (single isomer, unassigned) [Example 207] |
| – | – | – | – | 23 | 115 nM | O=C(N[C@H](c1ccccc1Cl)C(F)(F)F)c1cn(-c2ccc(F)cc2F)c2nc(N3CCCC(O)C3=O)ccc2c1=O (single isomer, unassigned) [Example 208] |
| – | – | – | – | 35 | 89 nM | CC(NC(=O)c1cn(-c2ccc(F)cc2F)c2nc(N3C[C@@H](O)CC3=O)ccc2c1=O)c1c(F)cccc1F (single isomer, unassigned) [Example 216] |
| – | – | – | – | 33 | 106 nM | CC[C@H](NC(=O)c1cn(-c2ccc(F)cc2F)c2nc(N3CCC(O)C3)ccc2c1=O)C(F)(F)F (single isomer, unassigned) [Example 219] |
| – | – | – | – | 29 | 116 nM | CC[C@H](NC(=O)c1cn(-c2ccc(F)cc2F)c2nc(N3CCC(O)C3)ccc2c1=O)C(F)(F)F (single isomer, unassigned) [Example 220] |
| – | – | – | – | 30 | 84 nM | CC[C@@H](NC(=O)c1cn(-c2ccc(F)cc2F)c2nc(N3CC4CNC(=O)C4C3)ccc2c1=O)C(F)(F)F (single isomer, unassigned) [Example 223] |
| – | – | – | – | 33 | 363 nM | CC[C@@H](NC(=O)c1cn(-c2ccc(F)cc2F)c2nc(N3CCC(O)C3=O)ccc2c1=O)C(F)(F)F (single isomer, unassigned) [Example 225] |
| – | – | – | – | 35 | 83 nM | CC[C@@H](NC(=O)c1cn(-c2ccc(F)cc2F)c2nc(N3CCC(O)C3=O)ccc2c1=O)C(F)(F)F (single isomer, unassigned) [Example 226] |
| – | – | – | – | 12 | 51 nM | CC(COC(F)(F)F)NC(=O)c1cn(-c2ccc(F)cc2F)c2nc(N3CC[C@H](F)C3)ccc2c1=O (single isomer, unassigned) [Example 228] |
| – | – | – | – | 13 | 52 nM | CC(COC(F)(F)F)NC(=O)c1cn(-c2ccc(F)cc2F)c2nc(N3CC[C@H](F)C3)ccc2c1=O (single isomer, unassigned) [Example 229] |
| – | – | – | – | 10 | 90 nM | O=C(NC(c1c(F)cccc1F)C(F)(F)F)c1cn(-c2ccc(F)cc2F)c2nc(N3CC[C@H](F)C3)ccc2c1=O (single isomer, unassigned) [Example 242] |
| – | – | – | – | 33 | 15 nM | O=C(NC(c1c(F)cccc1F)C(F)(F)F)c1cn(-c2ccc(F)cc2F)c2nc(N3CC[C@H](F)C3)ccc2c1=O (single isomer, unassigned) [Example 243] |
